Here are results for 32 molecules from US6967196B1, “Sulfonamide compounds and uses thereof” (Bristol-Myers Squibb Company, priority 1999, dated 2005).

Where a name gives a salt, the structure may show the parent alone.

The subject of the first experiment is amyloid β production in transfected H4 (human neuroglioma) cells stably expressing APP constructs. The experiment is described as follows: In vitro cell-based assay of inhibitors of amyloid β production (ELISA). Conditions: Table B; transfected H4 cells stably expressing APP; approximately 16 hours incubation; amyloid β in medium by ELISA; read-out: ACTIVITY (inhibitory concentration IC50, inhibition of amyloid β production). In short, it runs like this: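 Sandwich ELISA read-out: Aβ in conditioned medium captured via C-terminal epitope mAb, detected with N-terminus-specific rabbit polyclonal, quantified from a standard curve. Compounds 10-100 μM, ~16 h exposure. Active = ≥50% inhibition vs control without significant cytotoxicity; dose-response follows.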
Regarding `CC(=O)Nc1nc(C)c(S(=O)(=O)N(Cc2ccccc2OCCCN2CCCCC2)c2cc(Cl)ccc2Cl)s1` [Example 259, N-{5-[(2,5-dichloro{2-[3-(1-piperidinyl)propoxy]benzyl}anilino)sulfonyl]-4-methyl-1,3-thiazol-2-yl}acetamide Hydrochloride], the IC50 is 0.025 to 0.05 µM.

Regarding `O=S(=O)(/C=C/c1ccccc1)N(Cc1ccccc1OCCCN1CCCCC1)c1cc(Cl)ccc1Cl` [Example 260, (E)-N-(2,5-dichlorophenyl)-2-phenyl-N-{2-[3-(1-piperidinyl)propoxy]benzyl}ethenesulfonamide hydrochloride], the IC50 was in the range of 0.025 to 0.05 µM.

As to `O=S(=O)(Cc1ccccc1)N(Cc1ccccc1OCCCN1CCCCC1)c1cc(Cl)ccc1Cl` [Example 261, N-(2,5-dichlorophenyl)(phenyl)-N-{2-[3-(1-piperidinyl)propoxy]benzyl}methanesulfonamide Hydrochloride], the IC50 lay in the range of 0.025 to 0.05 µM.

Staying with this experiment, now noted: read-out: ACTIVITY (inhibitory concentration IC50, inhibition of amyloid β production).
With `O=S(=O)(c1ccc(Cl)cc1)N(Cc1ccccc1OCCCN1CCCCC1)c1cccc(Cl)c1` [Example 235, 4-Chloro-N-(3-chlorophenyl)-N-{2-[3-(1-piperidinyl)propoxy]benzyl}benzenesulfonamide Hydrochloride], the IC50 is 0.025 to 0.05 µM.

Regarding `CC(c1ccccc1OCCCN1CCCCC1)N(c1cc(F)ccc1F)S(=O)(=O)c1ccc(Cl)cc1` (centres unmarked) [Example 236, 4-Chloro-N-(2,5-difluorophenyl)-N-(1-{2-[3-(1-piperidinyl)propoxy]phenyl}ethyl)benzenesulfonamide Hydrochloride], the IC50 fell in the range of 0.025 to 0.05 µM.

Turning to `O=S(=O)(c1ccc(Cl)cc1)N(Cc1ccccc1OCCCN1CCCCC1)c1cccc(Br)c1` [Example 237, N-(3-bromophenyl)-4-chloro-N-{2-[3-(1-piperidinyl)propoxy]benzyl}benzenesulfonamide Hydrochloride], the IC50 fell in the range of 0.025 to 0.05 µM.

As to `CSc1ccccc1N(Cc1ccccc1OCCCN1CCCCC1)S(=O)(=O)c1ccc(Cl)cc1` [Example 238, 4-Chloro-N-[2-(methylsulfanyl)phenyl]-N-{2-[3-(1-piperidinyl)propoxy]benzyl}benzenesulfonamide Hydrochloride], the IC50 is 0.025 to 0.05 µM.

Staying with this experiment, now noted: transfected H4 cells stably expressing APP; approximately 16 hours incubation; amyloid β in medium by ELISA; Table B; Hydrochloride; read-out: ACTIVITY (IC50, inhibition of amyloid β production).
Take `O=S1(=O)CCN(CCCOc2ccccc2CN(c2ccccc2)S(=O)(=O)c2ccc(Cl)cc2)CC1` [Example 313, 4-Chloro-N-{2-[3-(1,1-dioxido-4-thiomorpholinyl)propoxy]benzyl}-N-phenylbenzenesulfonamide Hydrochloride]: the IC50 lay in the range of 0.05 to 0.1 µM.

Staying with this experiment, now noted: transfected H4 cells stably expressing APP; approximately 16 hours incubation; amyloid β in medium by ELISA; Table B; read-out: ACTIVITY (IC50, inhibition of amyloid β production).
`O=S1(=O)c2cccc3cccc(c23)N1Cc1ccccc1OCCCN1CCCCC1` [Example 269, 2-{2-[3-(1-piperidinyl)propoxy]benzyl}-2H-naphtho[1,8-cd]isothiazole 1,1-Dioxide Hydrochloride]: the IC50 was 0.025 to 0.05 µM.

Turning to `O=S(=O)(c1ccc(Cl)cc1)N(Cc1ccccc1OCCCN1CCCCC1)C1CCOCC1` [Example 271, 4-Chloro-N-{2-[3-(1-piperidinyl)propoxy]benzyl}-N-tetrahydro-2H-pyran-4-ylbenzenesulfonamide hydrochloride], the IC50 was 0.025 to 0.05 µM.

Turning to `O=S(=O)(c1ccc(Cl)cc1)N(Cc1ccc2ccccc2c1OCCCN1CCCCC1)c1cc(F)ccc1F` [Example 272, 4-Chloro-N-(2,5-difluorophenyl)-N-({1-[3-(1-piperidinyl)propoxy]-2-naphthylmethyl)benzenesulfonamide Hydrochloride], the IC50 lay in the range of 0.025 to 0.05 µM.

In the case of `CN1CCCCC1CCOc1ccccc1CN(c1ccccc1)S(=O)(=O)c1ccc(Cl)cc1` (centres unmarked) [Example 276, 4-Chloro-N-{2-[2-(1-methyl-2-piperidinyl)ethoxy]benzyl}-N-phenylbenzenesulfonamide Hydrochloride], the IC50 was in the range of 0.025 to 0.05 µM.

As for `CN1CCCC1CCOc1ccccc1CN(c1ccccc1)S(=O)(=O)c1ccc(Cl)cc1` (centres unmarked) [Example 277, 4-Chloro-N-{2-[2-(1-methyl-2-pyrrolidinyl)ethoxy]benzyl}-N-phenylbenzenesulfonamide Hydrochloride], the IC50 fell in the range of 0.025 to 0.05 µM.

As for `O=S(=O)(c1ccccc1)N(Cc1ccccc1OCCCN1CCC(O)C1)c1ccccc1` (centres unmarked) [Example 279, N-{2-[3-(3-hydroxy-1-pyrrolidinyl)propoxy]benzyl}-N-phenylbenzenesulfonamide Hydrochloride], the IC50 was in the range of 0.025 to 0.05 µM.

As to `CC(C)(C)OC(=O)N1CCN(CCCOc2ccccc2CN(c2ccccc2)S(=O)(=O)c2ccc(Cl)cc2)CC1` [Example 288, Tert-butyl 4-{3-[2-({[(4 chlorophenyl)sulfonyl}anilino}methyl)phenoxy]propyl}-1-piperazinecarboxylate], the IC50 lay within 0.025 to 0.05 µM.

Turning to `O=S(=O)(c1ccc(Cl)cc1)N(Cc1ccccc1OCCCN1CC=CCC1)c1ccccc1` [Example 289, 4-Chloro-N-{2-[3-(3,6-dihydro-1(2H)pyridinyl)propoxy]benzyl}-N-phenylbenzenesulfonamide Hydrochloride], the IC50 fell in the range of 0.025 to 0.05 µM.

In the case of `O=S(=O)(c1ccc(Cl)cc1)N(Cc1ccccc1OCCCN1CCC(Cc2ccccc2)CC1)c1ccccc1` [Example 290, N-{2-[3-(4-benzyl-1-piperidinyl)propoxy]benzyl}-4-chloro-N-phenylbenzenesulfonamide Hydrochloride], the IC50 lay within 0.025 to 0.05 µM.

Turning to `O=S(=O)(c1ccc(Cl)cc1)N(Cc1ccccc1OCCCN1CCC1)c1ccccc1` [Example 292, N-{2-[3-(1-azetidinyl)propoxy]benzyl}-4-chloro-N-phenylbenzenesulfonamide Hydrochloride], the IC50 was 0.025 to 0.05 µM.

As for `O=S(=O)(c1ccc(Cl)cc1)N(Cc1ccccc1OCCCNC1CC1)c1ccccc1` [Example 297, 4-Chloro-N-{2-[3-(cyclopropylamino)propoxy]benzyl}-N-phenylbenzenesulfonamide Hydrochloride], the IC50 lay within 0.05 to 0.1 µM.

Take `O=S(=O)(c1ccc(Cl)cc1)N(Cc1ccccc1OCCCN1CCC(O)CC1)c1ccccc1` [Example 298, 4-Chloro-N-{2-[3-(4-hydroxy-1-piperidinyl)propoxy]benzyl}-N-phenylbenzenesulfonamide Hydrochloride]: the IC50 was 0.05 to 0.1 µM.

Regarding `CN1C2CCC1[C@@H](COc1ccccc1CN(c1ccccc1)S(=O)(=O)c1ccc(Cl)cc1)C2` (stereo partly drawn) [Example 300, 4-Chloro-N-(2-{[(2S)-7-methyl-7-azabicyclo[2.2.1]hept-2-yl]methoxy]benzyl)-N-phenylbenzenesulfonamide Hydrochloride], the IC50 fell in the range of 0.05 to 0.1 µM.

Turning to `O=S(=O)(c1ccc(Cl)cc1)N(Cc1ccccc1OCCCn1ccnc1)c1ccccc1` [Example 302, 4-Chloro-N-{2-[3-(1H-imidazol-1-yl)propoxy]benzyl}-N-phenylbenzenesulfonamide Hydrochloride], the IC50 was 0.05 to 0.1 µM.

Regarding `CC1CC(C)CN(CCCOc2ccccc2CN(c2ccccc2)S(=O)(=O)c2ccc(Cl)cc2)C1` (centres unmarked) [Example 303, 4-Chloro-N-{2-[3-(3,5-dimethyl-1-piperidinyl)propoxy]benzyl}-N-phenylbenzenesulfonamide Hydrochloride], the IC50 lay in the range of 0.05 to 0.1 µM.

Consider `O=S(=O)(c1ccc(Cl)cc1)N(Cc1ccccc1OCCCN1CCCCCC1)c1ccccc1` [Example 305, N-{2-[3-(1-azepanyl)propoxy]benzyl}-4-chloro-N-phenylbenzenesulfonamide Hydrochloride], for which the IC50 was in the range of 0.05 to 0.1 µM.

As for `C[C@@H]1CCC[C@H](C)N1CCCOc1ccccc1CN(c1ccccc1)S(=O)(=O)c1ccc(Cl)cc1` [Example 306, 4-Chloro-N-(2-{3-[(2R,6S)-2,6-dimethylpiperidinyl]propoxy}benzyl)-N-phenylbenzenesulfonamide Hydrochloride], the IC50 was in the range of 0.05 to 0.1 µM.

`O=C1CCN(CCCOc2ccccc2CN(c2ccccc2)S(=O)(=O)c2ccc(Cl)cc2)CC1` [Example 307, 4-Chloro-N-{2-[3-(4-oxo-1-piperidinyl)propoxy]benzyl}-N-phenylbenzenesulfonamide Hydrochloride]: the IC50 lay within 0.05 to 0.1 µM.

Turning to `O=S(=O)(c1ccc(Cl)cc1)N(Cc1cc(Cl)ccc1OCCCN1CCC(O)CC1)c1ccccc1` [Example 309, 4-Chloro-N-{5-chloro-2-[3-(4-hydroxy-1-piperidinyl)propoxy]benzyl}-N-phenylbenzenesulfonamide Hydrochloride], the IC50 is 0.05 to 0.1 µM.

With `O=S(=O)(c1ccc(Cl)cc1)N(Cc1ccccc1OCCCN1CCCC(O)C1)c1ccccc1` (centres unmarked) [Example 310, 4-Chloro-N-{2-[3-(3-hydroxy-1-piperidinyl)propoxy]benzyl}-N-phenylbenzenesulfonamide Hydrochloride], the IC50 was in the range of 0.05 to 0.1 µM.

As to `O=S(=O)(c1ccc(Cl)cc1)N(Cc1ccccc1OCCCN1CCC(CO)CC1)c1ccccc1` [Example 311, 4-Chloro-N-(2-{3-[4-(hydroxymethyl)-1-piperidinyl]propoxy}benzyl)-N-phenylbenzenesulfonamide Hydrochloride], the IC50 lay within 0.05 to 0.1 µM.

Regarding `CC1(O)CCN(CCCOc2ccccc2CN(c2ccccc2)S(=O)(=O)c2ccc(Cl)cc2)CC1` [Example 312, 4-Chloro-N-{2-[3-(4-hydroxy-4-methyl-1-piperidinyl)propoxy]benzyl}-N-phenylbenzenesulfonamide Hydrochloride], the IC50 was in the range of 0.05 to 0.1 µM.

For `CC(c1ccccc1OCCCn1ccnc1)N(c1cc(F)ccc1F)S(=O)(=O)c1ccc(Cl)cc1` (centres unmarked) [Example 321, 4-Chloro-N-(2,5-difluorophenyl)-N-1-{2-[3-(1H-imidazol-1-yl)propoxy]phenyl}ethyl)benzenesulfonamide Hydrochloride], the IC50 is 0.05 to 0.1 µM.

In the case of `CC(=O)SCCCOc1ccccc1CN(c1ccccc1)S(=O)(=O)c1ccc(Cl)cc1` [Example 341, S{3-[2-({[(4-chlorophenyl)sulfonyl]anilino}methyl)phenoxy]propyl}ethanethioate], the IC50 was in the range of 0.05 to 0.1 µM.
